Test system: 227483-062-R1-J1-PDC complex spheroids with HUVEC/MSC, viability
Assay: Anticancer human tumor 227483-062-R1-J1-PDC patient-derived pancreatic carcinoma cell line growth inhibition [CLK]
Details: for IC50: curve of first compound; for viability, T/C: stronger effect = lower value
In short: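 Patient-derived tumor cells grown as complex spheroids with HUVEC endothelial cells and mesenchymal stem cells, treated with drug combinations. Concentrations descend in half-log steps from near clinical Cmax, or from 10 microM if Cmax unknown.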

[1] = second compound 0.0316 µM, first compound 0.0316 µM
[2] = second compound 0.0316 µM, first compound 0.1 µM
[3] = second compound 0.0316 µM, first compound 0.316 µM
[4] = second compound 0.0316 µM, first compound 1 µM
[5] = second compound 0.0316 µM, first compound 3.16 µM
[6] = second compound 0.0316 µM, first compound 10 µM
[7] = second compound 0.1 µM, first compound 0.0316 µM
[8] = second compound 0.1 µM, first compound 0.1 µM
[9] = second compound 0.1 µM, first compound 0.316 µM
[10] = second compound 0.1 µM, first compound 1 µM
[11] = second compound 0.1 µM, first compound 3.16 µM
[12] = second compound 0.1 µM, first compound 10 µM
[13] = second compound 0.316 µM, first compound 0.0316 µM
[14] = second compound 0.316 µM, first compound 0.1 µM
[15] = second compound 0.316 µM, first compound 0.316 µM
[16] = second compound 0.316 µM, first compound 1 µM
[17] = second compound 0.316 µM, first compound 3.16 µM
[18] = second compound 0.316 µM, first compound 10 µM
[19] = second compound 1 µM, first compound 0.0316 µM
[20] = second compound 1 µM, first compound 0.1 µM
[21] = second compound 1 µM, first compound 0.316 µM
[22] = second compound 1 µM, first compound 1 µM
[23] = second compound 1 µM, first compound 3.16 µM
[24] = second compound 1 µM, first compound 10 µM
[25] = second compound 3.16 µM, first compound 0.0316 µM
[26] = second compound 3.16 µM, first compound 0.1 µM
[27] = second compound 3.16 µM, first compound 0.316 µM
[28] = second compound 3.16 µM, first compound 1 µM
[29] = second compound 3.16 µM, first compound 3.16 µM
[30] = second compound 3.16 µM, first compound 10 µM
[31] = second compound 10 µM, first compound 0.0316 µM
[32] = second compound 10 µM, first compound 0.1 µM
[33] = second compound 10 µM, first compound 0.316 µM
[34] = second compound 10 µM, first compound 1 µM
[35] = second compound 10 µM, first compound 3.16 µM
[36] = second compound 10 µM, first compound 10 µM
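Also: spheroids exposed to compounds for seven days before readout.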
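For viability, T/C in this document: percent of DMSO vehicle control luminescence as 100% viability.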

Question: Which results are given for `C=C(F)C(=O)N1CCN(c2nc(OCC3CCCN3C)nc3c2CCN(c2cccc4cccc(Cl)c24)C3)CC1CC#N` (centres undefined) + CNC(=O)c1ccc(Nc2nc(OC3CCCC3)c3c(-c4ccc5nc(C)oc5c4)c[nH]c3n2)c(OC)c1?
Answer: IC50 (second compound 0.0316 µM): 5.41 µM; IC50 (second compound 0.1 µM): 5.79 µM; IC50 (second compound 0.316 µM): 5.82 µM; IC50 (second compound 1 µM): 3.78 µM; IC50 (second compound 3.16 µM): 0.169 µM; IC50 (second compound 10 µM): < 0.0316 µM; viability, T/C [1]: 116%; viability, T/C [2]: 98%; viability, T/C [3]: 117%; viability, T/C [4]: 121%; viability, T/C [5]: 83.9%; viability, T/C [6]: 11.4%; viability, T/C [7]: 113%; viability, T/C [8]: 118%; viability, T/C [9]: 93.7%; viability, T/C [10]: 103%; viability, T/C [11]: 96.5%; viability, T/C [12]: 8.35%; viability, T/C [13]: 95.9%; viability, T/C [14]: 84.2%; viability, T/C [15]: 101%; viability, T/C [16]: 102%; viability, T/C [17]: 130%; viability, T/C [18]: 3.32%; viability, T/C [19]: 79.6%; viability, T/C [20]: 57.4%; viability, T/C [21]: 67.7%; viability, T/C [22]: 69%; viability, T/C [23]: 58.8%; viability, T/C [24]: 0.65%; viability, T/C [25]: 52.3%; viability, T/C [26]: 47.2%; viability, T/C [27]: 51.9%; viability, T/C [28]: 41.6%; viability, T/C [29]: 22%; viability, T/C [30]: 0.26%; viability, T/C [31]: 42.4%; viability, T/C [32]: 43.3%; viability, T/C [33]: 40.3%; viability, T/C [34]: 29%; viability, T/C [35]: 16.1%; viability, T/C [36]: 0.39%

Question: Which results are given for `CC(CO)NC(=O)c1cc(-c2ccc(Cl)cc2)nn(-c2cnn(C)c2)c1=O` (centres undefined) + CNC(=O)c1ccc(Nc2nc(OC3CCCC3)c3c(-c4ccc5nc(C)oc5c4)c[nH]c3n2)c(OC)c1?
Answer: IC50 (second compound 0.0316 µM): > 10 µM; IC50 (second compound 0.1 µM): > 10 µM; IC50 (second compound 0.316 µM): > 10 µM; IC50 (second compound 1 µM): > 10 µM; IC50 (second compound 3.16 µM): < 0.0316 µM; IC50 (second compound 10 µM): < 0.0316 µM; viability, T/C [1]: 100%; viability, T/C [2]: 80.3%; viability, T/C [3]: 103%; viability, T/C [4]: 99.4%; viability, T/C [5]: 86.6%; viability, T/C [6]: 84.7%; viability, T/C [7]: 109%; viability, T/C [8]: 102%; viability, T/C [9]: 96.1%; viability, T/C [10]: 91.4%; viability, T/C [11]: 78.3%; viability, T/C [12]: 82.6%; viability, T/C [13]: 80.2%; viability, T/C [14]: 90.7%; viability, T/C [15]: 85.5%; viability, T/C [16]: 77.5%; viability, T/C [17]: 83.7%; viability, T/C [18]: 70.8%; viability, T/C [19]: 62.6%; viability, T/C [20]: 68.2%; viability, T/C [21]: 61.4%; viability, T/C [22]: 54.1%; viability, T/C [23]: 64.9%; viability, T/C [24]: 56.9%; viability, T/C [25]: 45.5%; viability, T/C [26]: 50.3%; viability, T/C [27]: 46%; viability, T/C [28]: 45.5%; viability, T/C [29]: 49%; viability, T/C [30]: 38.3%; viability, T/C [31]: 36.5%; viability, T/C [32]: 41.8%; viability, T/C [33]: 51.3%; viability, T/C [34]: 37.3%; viability, T/C [35]: 30.6%; viability, T/C [36]: 36%
